# Read-outs that look alike come from different tables or passages of the source.
# Key:
# microorganism growth = settings: tens of micromolar, e.g.; cited from earlier work
# Fusarium avenaceum = settings: cited from earlier work
# Pantoea agglomerans = settings: at concentrations of 10 ppm, single inhibitor; cited from earlier work
# [1] = system: Rhodosporidium toruloides; settings: Hu et al. 2009; cited from earlier work
# Trichosporon cutaneuin = settings: Wang et al. 2016; cited from earlier work
# R. toruloides strain A = assay: 4-hydroxybenzaldehyde spike-in titration in YPG media, R. toruloides; format: cell-based, Rhodosporidium toruloides
# [2] = system: Y. lipolytica strain poll g; assay: 4-hydroxybenzaldehyde spike-in titration in YPG media, Y. lipolytica; format: cell-based, Yarrowia lipolytica; settings: concentrations tested 1 μM-100 mM
# Trichophyton rubrum = settings: Kamp et al., Mycoses 2005; cited from earlier work
# [3] = system: ethanol-producing yeast and bacteria; settings: as low as; cited from earlier work
# Aspergillus fumigatus = settings: Ryan et al. 2011; cited from earlier work
# [4] = system: Pseudoperonospora cubensis; settings: Zhu et al. 2018; cited from earlier work
# S. cerevisiae [5] = settings: cited from earlier work
# S. cerevisiae [6] = assay: Inhibition of ethanol production by S. cerevisiae (Banergee et al.); format: cell-based, Saccharomyces cerevisiae; settings: molar conversion in parentheses
# Procedure: In some embodiments, the feedstock comprises furfural. Furfural is also known as furan-2-carboxaldehyde, feral, furfuraldehyde, 2-furaldehyde, and pyromucic aldehyde. Within the art, furfural is a well-known and potent inhibitor of microbial fermentation. […] See also, Sitepu et al., “Carbon source utilization and inhibitor tolerance of 45 oleaginous yeast species,” J Ind Microbiol Biotechnol 2014;41(7):1061-1070. In some embodiments, the feedstock comprises at least 10 μM, 20 μM, 30 μM, 40 μM, 50 μM, 60 μM, 70 μM, 80 μM, 90 μM, 100 μM, 200 μM, 300 μM, 400 μM, 500 μM, 600 μM, 700 μM, 800 μM, 900 μM, 1 mM, 2 mM, 3 mM, 4 mM, 5 mM, 6 mM, 7 mM, 8 mM, 9 mM, 10 mM, 20 mM, 30 mM, 40 mM, 50 mM, 60 mM, 70 mM, 80 mM, 90 mM, or 100 mM furfural, or any ranges or subranges therebetween. In some embodiments, the feedstock comprises at least 10 μM furfural.
# [7] = system: R. toruloides strain A, R. toruloides strain B; assay: Batch fermentation with glycerol supplement, R. toruloides; format: cell-based, Rhodosporidium toruloides; settings: 50 g/L glycerol added to 30% corn stillage syrup feedstock, 6 days
# Excerpt: (§1) For the purposes of this example, the exemplary feedstock employed was a 30% corn stillage syrup-based feedstock, comprising 30% v/v corn stillage syrup, with insoluble components removed via centrifugation, diluted in deionized water.
# (§2) Four strains of oleaginous microorganisms were selected to investigate the potential of the exemplary feedstock to support the growth of oleaginous microorganisms: R. toruloides strain A, R. toruloides strain B, Y. lipolytica strain po 1 g, and L. starkeyi strain CBS 1807. As a control, a canonical non-oleaginous yeast, P. pastoris strain X33, was included for comparison.
# (§3) Fermentations were run in batch format for 6 days. Dry cell weight, oil titer and lipid content were evaluated as described in Example 5.
# (§4) 50 g/L glycerol was added to the feedstock and fermentations were again run for 6 days. Dry cell weight and oil titer were evaluated and compared to the results of the batch fermentation.
# [8] = system: Y. lipolytica strain po 1 g; assay: Batch fermentation with glycerol supplement, Y. lipolytica; format: cell-based, Yarrowia lipolytica; settings: 50 g/L glycerol added to 30% corn stillage syrup feedstock, 6 days
# Excerpt: as §1, §2, §3, §4
# [9] = system: L. starkeyi strain CBS 1807; assay: Batch fermentation with glycerol supplement, L. starkeyi; format: cell-based, Lipomyces starkeyi; settings: 50 g/L glycerol added to 30% corn stillage syrup feedstock, 6 days
# Excerpt: as §1, §2, §3, §4
# Eutypa lata = settings: as low as; lowered growth rate even after renewal of culture medium; cited from earlier work
# Saccharomyces cerevisiae = settings: concentrations in the mM range; cited from earlier work
structure (smiles),measurement,setting,value
"CC1(O)CCOC(=O)C1 (racemic) [mevalonic acid lactone, 4-Hydroxy-4-methyltetrahydro-2H-pyran-2-one]",concentration at which it can act as an inhibitor for microorganism growth,microorganism growth,67 µM
same,growth of Fusarium avenaceum,Fusarium avenaceum,inhibit the growth
same,inhibition of growth of Pantoea agglomerans,Pantoea agglomerans,10-15%
O=Cc1ccc(O)cc1 [4-hydroxybenzaldehyde],concentration showing inhibition of Rhodosporidium toruloides,[1],9 mM
same,concentration showing inhibition of Trichosporon cutaneum,Trichosporon cutaneuin,16 mM
same,increase in oil titer as compared to the no inhibitor control,R. toruloides strain A; 100 μM condition,over 50%
same,increase in oil titer as compared to the no inhibitor control,R. toruloides strain A; 10 mM condition,over 50%
same,growth (DCW) of the R. toruloides strain,R. toruloides strain A; 100 mM inhibitor in YPG media,inhibited altogether
same,growth (DCW) of the R. toruloides strain,"R. toruloides strain A; all concentrations tested (1 μM-10 mM) except 100 mM, YPG media, vs no inhibitor control",unaffected
same,effect on oil titer of R. toruloides,R. toruloides strain A; increasing concentrations between 1 μM and 10 mM,lipogenic effect
same,effect on growth of the Y. lipolytica strain,[2],no statistically significant effect
same,effect on oil production of the Y. lipolytica strain,[2],no statistically significant effect
NCC(=O)CCC(=O)O [5-aminolevulinic acid],concentration showing inhibition of Trichophyton rubrum,Trichophyton rubrum,above 10 mM
"O=Cc1ccc(CO)o1 [HMF, 5-(hydroxymethyl)furfural]",concentration of significant inhibition of growth and ethanol production,[3],8 mM
"O=C(O)C(O)Cc1ccc(O)cc1 (centres unmarked) [Hydroxyphenyllactic acid, 2-Hydroxy-3-(p-hydroxyphenyl)propionic acid]",inhibitory concentration,Aspergillus fumigatus,5 mg/mL
O=C1CC[C@@H](C(=O)O)N1 [Pyroglutamic acid],inhibitor of fungal species,[4],known inhibitor
O=Cc1ccco1 [furfural],concentration inhibiting ethanol production,S. cerevisiae [5]; as low as,0.5 g/L
same,concentration of complete inhibition of ethanol production,S. cerevisiae [5]; complete inhibition,4 g/L
same,concentration inhibiting ethanol production,S. cerevisiae [6]; as low as,~10 mM
same,concentration of complete inhibition of ethanol production,S. cerevisiae [6]; complete inhibition,~40 mM
OCC(O)CO [glycerol],growth (DCW) with added glycerol vs without,[7],dramatically increased
same,oil production with added glycerol vs without,[7],dramatically increased
same,growth (DCW) with added glycerol,[8],significantly less growth
same,oil titer with added glycerol,[8],only marginally improved
same,growth (DCW) with added glycerol,[9],significantly less growth
same,oil titer with added glycerol,[9],only marginally improved
O=C(O)c1ccccc1O [salicylic acid],concentration causing fungistatic effects in Eutypa lata,Eutypa lata,1 mM
same,inhibitory concentration,Aspergillus fumigatus,0.25 mg/mL
same,effects against Saccharomyces cerevisiae,Saccharomyces cerevisiae,fungicidal effects
